Source: ChEMBL document CHEMBL1201862, “PubChem BioAssay data set” (2004)
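A five-concentration, 48-hour dose response in 96-well plates underlies each endpoint, interpolated linearly between surrounding concentrations. GI50 marks 50% less growth.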 Calls of active or inactive are those of the source. Cut-off read from the data, not from the text of the source: active = GI50 up to about 1.1 µM and inactive = higher.

Columns and labels:
Test in all cases: NCI anticancer screen, dose series, 48 h
NCI-H460 = test system: NCI-H460
OVCAR-3 = test system: OVCAR-3
HCT-15 = test system: HCT-15
SN12C = test system: SN12C
OVCAR-4 = test system: OVCAR-4
SK-OV-3 = test system: SK-OV-3
SF-295 = test system: SF-295
OVCAR-8 = test system: OVCAR-8
UO-31 = test system: UO-31
K562 = test system: K562
U-251 = test system: U-251
SW-620 = test system: SW-620
SK-MEL-5 = test system: SK-MEL-5
NCI-H23 = test system: NCI-H23
A498 = test system: A498
OVCAR-5 = test system: OVCAR-5
UACC-62 = test system: UACC-62
IGROV-1 = test system: IGROV-1
HL-60 = test system: HL-60
A549 = test system: A549

| SMILES | GI50 (NCI-H460) | GI50 (OVCAR-3) | GI50 (HCT-15) [µM] | GI50 (SN12C) | GI50 (OVCAR-4) | GI50 (SK-OV-3) | GI50 (SF-295) | GI50 (OVCAR-8) | GI50 (UO-31) | GI50 (K562) | GI50 (U-251) | GI50 (SW-620) | GI50 (SK-MEL-5) | GI50 (NCI-H23) | GI50 (A498) | GI50 (OVCAR-5) | GI50 (UACC-62) | GI50 (IGROV-1) | GI50 (HL-60) | GI50 (A549) |
| --- | --- | --- | --- | --- | --- | --- | --- | --- | --- | --- | --- | --- | --- | --- | --- | --- | --- | --- | --- | --- |
| Cc1cccc2nc3c(C(=O)NCCN(C)C)cccc3cc12 | 0.705 µM (active) | 2.05 µM (inactive) | 2.33 | 1.19 µM (inactive) | 1.83 µM (inactive) | 2.58 µM (inactive) | 1.51 µM (inactive) | 1.07 µM (active) | 1.27 µM (inactive) | 1.8 µM (inactive) | 2.52 µM (inactive) | 1 µM (active) | 1.64 µM (inactive) | 2.07 µM (inactive) | 1.37 µM (inactive) | 2.27 µM (inactive) | 1.68 µM (inactive) | 2.31 µM (inactive) | 1.14 µM (inactive) | 1.09 µM (active) |
| COC(=O)c1c(O)ccc2c1c1c(n2Cc2cccc(C)c2)C(=O)c2ccccc2C1 | 19.4 µM (inactive) | 12.6 µM (inactive) | 19.7 | 12.9 µM (inactive) | 0.126 µM (active) | > 75 µM (inactive) | 24.9 µM (inactive) | 26.2 µM (inactive) | > 75 µM (inactive) | 29.4 µM (inactive) | 14.5 µM (inactive) | 26.2 µM (inactive) | 29.2 µM (inactive) | 23.7 µM (inactive) | 40.8 µM (inactive) | 22 µM (inactive) | 32.6 µM (inactive) | 42.7 µM (inactive) | > 75 µM (inactive) | 25.2 µM (inactive) |
| COc1ccc(C(=O)Cc2ccc(Cl)cc2)cc1OC | > 100 µM (inactive) | > 100 µM (inactive) | > 100 | > 100 µM (inactive) | > 100 µM (inactive) | > 100 µM (inactive) | > 100 µM (inactive) | > 100 µM (inactive) | > 100 µM (inactive) | > 100 µM (inactive) | > 100 µM (inactive) | > 100 µM (inactive) | > 100 µM (inactive) | > 100 µM (inactive) | > 100 µM (inactive) | > 100 µM (inactive) | > 100 µM (inactive) | > 100 µM (inactive) | > 100 µM (inactive) | > 100 µM (inactive) |
| COc1cc(C2c3cc4c(cc3OC3(O)COC(=O)C23)OCO4)cc(OC)c1OC (stereo not given) | 56.2 µM (inactive) | 33 µM (inactive) | 53.2 | 67 µM (inactive) | > 100 µM (inactive) | 25.1 µM (inactive) | 26.9 µM (inactive) | 54 µM (inactive) | 34.7 µM (inactive) | 42.3 µM (inactive) | 38.4 µM (inactive) | 35 µM (inactive) | > 10 µM (inactive) | 34.8 µM (inactive) | 46.7 µM (inactive) | > 100 µM (inactive) | 44.3 µM (inactive) | 48.9 µM (inactive) | 30.3 µM (inactive) | 67.5 µM (inactive) |
| CC(C)C1NC(=O)CC(c2ccccc2)N(N=O)C1c1ccccc1 (stereo not given) | > 100 µM (inactive) | > 68.9 µM (inactive) | > 100 | > 100 µM (inactive) | > 100 µM (inactive) | > 61.1 µM (inactive) | > 100 µM (inactive) | > 100 µM (inactive) | > 100 µM (inactive) | 71.4 µM (inactive) | > 100 µM (inactive) | > 100 µM (inactive) | > 83.6 µM (inactive) | > 80.9 µM (inactive) | > 100 µM (inactive) | > 100 µM (inactive) | > 100 µM (inactive) | > 100 µM (inactive) | 74.5 µM (inactive) | > 100 µM (inactive) |
| CO/C=C1\OC(=O)C=C1OC | > 100 µM (inactive) | > 100 µM (inactive) | > 100 | > 100 µM (inactive) | > 100 µM (inactive) | > 100 µM (inactive) | > 100 µM (inactive) | > 100 µM (inactive) | > 100 µM (inactive) | > 100 µM (inactive) | > 31.6 µM (inactive) | > 100 µM (inactive) | > 100 µM (inactive) | > 100 µM (inactive) | > 100 µM (inactive) | > 100 µM (inactive) | > 100 µM (inactive) | > 100 µM (inactive) | > 100 µM (inactive) | > 100 µM (inactive) |
| CC1(C)COC(/C=C/C2=NC(C)(C)CO2)=N1 | 67 µM (inactive) | 12.4 µM (inactive) | 15.1 | 1.95 µM (inactive) | 24.7 µM (inactive) | > 100 µM (inactive) | 42.2 µM (inactive) | 20.3 µM (inactive) | 18.6 µM (inactive) | 18.2 µM (inactive) | 21.1 µM (inactive) | 12.7 µM (inactive) | 14 µM (inactive) | 23.2 µM (inactive) | 0.0401 µM (active) | 20.4 µM (inactive) | 15.1 µM (inactive) | 18.5 µM (inactive) | 20.1 µM (inactive) | 42.9 µM (inactive) |
